Experimental data from article PMC9029695, “5-Aryl-1,3,4-oxadiazol-2-amines Decorated with Long Alkyl and Their Analogues: Synthesis, Acetyl- and Butyrylcholinesterase Inhibition and Docking Study” (Pharmaceuticals, 2022).

What was measured:
[1] = target: T1, AChE from electric eel (EeAChE) (Electrophorus electricus, UniProt O42275); experiment: Inhibition of AChE, modified Ellman's spectrophotometric method; format: biochemical, electric eel (Electrophorus electricus L.); details: for IC50: EeAChE, Ellman's method, mean ± SD, n = three independent experiments
T1 construct: purchased Merck (Prague, Czech Republic)
T1 sequence (O42275 24-633): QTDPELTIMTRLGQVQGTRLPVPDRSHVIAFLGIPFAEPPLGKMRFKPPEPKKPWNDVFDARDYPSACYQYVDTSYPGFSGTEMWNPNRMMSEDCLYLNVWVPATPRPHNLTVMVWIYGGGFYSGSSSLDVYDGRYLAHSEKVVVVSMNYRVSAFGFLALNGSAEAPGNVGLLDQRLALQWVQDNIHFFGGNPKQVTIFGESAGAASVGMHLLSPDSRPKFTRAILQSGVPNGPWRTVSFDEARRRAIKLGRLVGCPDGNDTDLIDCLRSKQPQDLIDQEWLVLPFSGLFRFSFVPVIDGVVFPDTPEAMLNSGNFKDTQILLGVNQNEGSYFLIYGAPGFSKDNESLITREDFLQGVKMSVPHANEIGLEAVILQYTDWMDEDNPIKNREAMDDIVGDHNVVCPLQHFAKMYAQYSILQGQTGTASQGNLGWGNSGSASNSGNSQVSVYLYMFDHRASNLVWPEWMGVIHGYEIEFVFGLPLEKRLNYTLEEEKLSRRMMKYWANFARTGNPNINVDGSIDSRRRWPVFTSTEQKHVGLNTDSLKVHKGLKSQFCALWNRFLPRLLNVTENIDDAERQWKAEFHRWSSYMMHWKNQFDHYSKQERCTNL
Text: (§1) The heterocycles 3 were screened for their ability to interfere with the function of AChE from electric eel (EeAChE) and BChE from equine serum (EqBChE) using Ellman’s method (Table 1). Their activities are expressed as the concentration producing 50% inhibition of enzymatic activity (IC50). In addition, we calculated selectivity indexes (SI) that quantify the selectivity for AChE as more inhibited cholinesterase. SI is the ratio of IC50 for BChE/IC50 for AChE.
(§2) Enzyme inhibition activity of 3 quantified as IC50 values was determined spectrophotometrically using modified Ellman’s method. […] The enzyme activity is measured indirectly by determination of 5-mercapto-2-nitrobenzoic acid ion formed after reaction of the thiol reagent 5,5′-disulfanediyl-bis(2-nitrobenzoic acid) (DTNB) and thiocholine, a product of acetylthiocholine (ATCh) and butyrylthiocholine (BTCh) as substrates for hydrolysis by AChE and BChE, respectively.
(§3) The enzyme activity in final reaction mixture (2000 µL) was 0.2 U/mL, concentration of ATCh (or BTCh) 40 µM and concentration of DTNB 100 µM for all reactions. The compounds 3 were dissolved in DMSO and then diluted in demineralized water (conductivity 3 μS, equipment supplier BKG Water Treatment, Hradec Králové, Czech Republic) to the concentration of 1000 µM. […] The final concentration of DMSO was 0.2%. All experiments were carried in triplicates. The average values of reaction rate (v0-uninhibited reaction, vi-inhibited reaction) were used for construction of the dependence v0/vi vs. concentration of inhibitor. From obtained equation of regression curve, IC50 values were calculated.
(§4) Acetylcholinesterase was used from electric eel (Electrophorus electricus L.; EeAChE) and butyrylcholinesterase originated from equine serum (EqBChE).

[2] = target: T2, BChE from equine serum (EqBChE) (Equus caballus, UniProt P81908); experiment: Inhibition of BChE, modified Ellman's spectrophotometric method; format: biochemical; details: for IC50: EqBChE, Ellman's method, mean ± SD, n = three independent experiments
T2 construct: butyrylcholinesterase originated from equine serum (EqBChE); purchased Merck (Prague, Czech Republic); host or cells: equine serum
T2 sequence (P81908 whole entry): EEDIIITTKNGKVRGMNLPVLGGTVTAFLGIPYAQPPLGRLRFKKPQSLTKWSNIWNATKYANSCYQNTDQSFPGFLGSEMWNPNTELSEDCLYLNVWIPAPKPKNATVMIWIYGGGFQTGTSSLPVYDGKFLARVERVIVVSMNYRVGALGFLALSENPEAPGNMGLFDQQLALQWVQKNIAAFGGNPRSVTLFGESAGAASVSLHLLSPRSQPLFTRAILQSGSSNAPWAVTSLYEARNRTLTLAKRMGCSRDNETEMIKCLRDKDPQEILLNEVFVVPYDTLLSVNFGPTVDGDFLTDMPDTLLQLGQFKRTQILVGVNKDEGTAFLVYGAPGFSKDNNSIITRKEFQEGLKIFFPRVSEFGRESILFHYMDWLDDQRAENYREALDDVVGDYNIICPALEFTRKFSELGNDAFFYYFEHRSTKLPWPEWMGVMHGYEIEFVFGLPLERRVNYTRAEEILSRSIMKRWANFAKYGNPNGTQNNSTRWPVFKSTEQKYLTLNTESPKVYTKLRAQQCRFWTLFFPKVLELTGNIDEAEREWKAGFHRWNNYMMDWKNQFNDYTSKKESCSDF
Text: as §1, §2, §3, §4

AChE [3] = target: T3, AChE (Electrophorus electricus, UniProt O42275); experiment: Type of AChE inhibition (Lineweaver–Burk plot); format: biochemical, electric eel (Electrophorus electricus L.); details: ATCh 20–80 µM, inhibitor 10, 25, 35 and 50 µM
T3 construct: purchased Merck (Prague, Czech Republic)
T3 sequence (O42275 24-633): as the sequence (O42275 24-633) above
Text: We also valuated the type of inhibition of 3t using AChE. In general, the reversible inhibitors can be classified as competitive, non-competitive, uncompetitive, or mixed type. The type of inhibition could be distinguished using the Lineweaver–Burk plot and the corresponding comparison of two key kinetic parameters: maximum velocity (Vm) and Michaelis constant (KM) of the inhibited and uninhibited reactions. Based on the changes of these parameters and intercept of the lines in Lineweaver–Burk plot, the type of inhibition is uncovered.
The inhibition is associated with a change in both KM and Vm and also their ratio is different compared to the uninhibited reaction. In the Lineweaver–Burk plot, the intersection of the lines is in quadrant III but not on axis.
The procedure was analogous to the determination of IC50. The enzyme activity in the final reaction mixture (2000 µL) was 0.2 U/mL, concentration of ATCh 20–80 µM and concentration of DTNB was 100 µM. For each of the substrate concentrations, four different concentrations of the inhibitor were used (10, 25, 35 and 50 µM). The dependence of absorbance vs. time was observed and the reaction rate was calculated. […] From obtained equations of regression curves in Lineweaver–Burk plot, the values of Michaelis constant (KM) and maximum velocity (Vm) were calculated. […]

AChE [4] = target: T3, AChE; experiment: Reversibility of AChE inhibition (residual enzyme activity over time); format: biochemical, electric eel (Electrophorus electricus L.)
Text: Based on the promising in vitro inhibition of AChE by thiadiazole 3t, we investigated the derivative to distinguish between reversible, pseudo-irreversible and irreversible inhibition on the basis of changes in enzyme activity over time in the presence of the inhibitor. In reversible inhibition, the activity of enzyme goes down immediately, but the inhibitory molecule is bound to the target for a short period of time, after which the inhibitor-enzyme complex dissociates, and enzyme activity is restored. In pseudo-irreversible inhibition, the inhibitor binds covalently to the enzyme, but the bond is broken down more slowly, delaying the return of enzyme activity to its initial state. In the case of irreversible inhibitors, the reaction between the enzyme and the inhibitor is not rapid because there is a time-dependent drop of activity. Irreversible inhibitors decrease enzyme activity gradually. […]
Three different inhibitor concentrations (1, 10, and 100 µM) were chosen. […] At given times (5, 10, 15, 20, 30, 40, 50, 60, 260, and 1450 min), DTNB and ATCh were added to the sample taken from the reaction mixture, mixed rapidly, and the absorbance was measured to quantify the enzyme activity. Based on knowledge of the enzyme activity in the absence of the inhibitor (i.e., 100% activity), the percentages of residual enzyme activity in presence of inhibitor were calculated. […]

SMILES | IC50 [1] [µM] | BChE/AChE Ratio (selectivity index, IC50 for BChE/IC50 for AChE) [1] | IC50 [2] [µM] | type of inhibition (AChE [3]) | fold higher in vitro activity (IC50) against AChE than rivastigmine ([1]; compared with rivastigmine) [×] | reversibility of AChE inhibition (AChE [4]; 1, 10 and 100 µM, residual activity followed 5–1450 min) | time at which almost maximum inhibition is reached (AChE [4]; two lower concentrations (1 and 10 µM)) [min] | fold boost of BChE inhibitory potency, switch of oxygen to sulfur ([2]; 3l vs. 3t) [×] | fold lower AChE inhibition, oxadiazole vs. thiadiazole 3t ([1]; 3t vs. 3l) [×]
CCCCCCCCCCCCNc1nnc(-c2ccc(C(C)(C)C)cc2)o1 [3d, 5-[4-(tert-Butyl)phenyl]-N-dodecyl-1,3,4-oxadiazol-2-amine] | 65.2 ± 0.72 | 2.3 | 152 ± 6.02 |  |  |  |  |  | 
CCCCCCCCCCCCNc1nnc(-c2ccccn2)o1 [3n, N-Dodecyl-5-(pyridin-2-yl)-1,3,4-oxadiazol-2-amine] | 60.5 ± 2.42 | 5.2 | 315.4 ± 1.96 |  |  |  |  |  | 
CCCCCCCCCCCCNc1nnc(-c2ccnnc2)o1 [3r, N-Dodecyl-5-(pyridazin-4-yl)-1,3,4-oxadiazol-2-amine] | 81.5 ± 4.14 | 2.9 | 238 ± 13.8 |  |  |  |  |  | 
CCCCCCCCCCCCNc1nnc(-c2ccc(F)cc2)o1 [3g, N-Dodecyl-5-(4-fluorophenyl)-1,3,4-oxadiazol-2-amine] | 36.7 ± 1.59 | 7.3 | 266.7 ± 2.59 |  |  |  |  |  | 
CCCCCCCCCCCCc1nnc(-c2ccncc2)o1 [3u, 2-Dodecyl-5-(pyridin-4-yl)-1,3,4-oxadiazole] | 99.2 ± 3.26 | 2.9 | 289 ± 1.55 |  |  |  |  |  | 
CCCCCCCCCCCCNc1nnc(-c2ccc(OC)cc2)o1 [3c, N-Dodecyl-5-(4-methoxyphenyl)-1,3,4-oxadiazol-2-amine] | 33.86 ± 0.27 | 6.6 | 225 ± 11 |  |  |  |  |  | 
CCCCCCCCCCCCNc1nnc(-c2cnccn2)o1 [3p, N-Dodecyl-5-(pyrazin-2-yl)-1,3,4-oxadiazol-2-amine] | 92.1 ± 6.11 | 4.9 | 452 ± 59.3 |  |  |  |  |  | 
CCCCCCCCCCCCNc1nnc(-c2ccccc2)o1 [3a, N-Dodecyl-5-phenyl-1,3,4-oxadiazol-2-amine] | 40.1 ± 0.54 | 3.7 | 149 ± 1.69 |  |  |  |  |  | 
CCCCCCCCCCCCSc1nnc(-c2ccncc2)o1 [3s, 2-(Dodecylthio)-5-(pyridin-4-yl)-1,3,4-oxadiazole] | 91.6 ± 7.14 | >5.5 | > 500 |  |  |  |  |  | 
CCCCCCCCCCCCNc1nnc(-c2ccncc2)s1 [3t, N-Dodecyl-5-(pyridin-4-yl)-1,3,4-thiadiazol-2-amine] | 12.78 ± 0.03 | 4.2 | 53.1 ± 3.68 | mixed type of inhibition | 4.4 | reversible AChE inhibitor | 5 | 4.2 | 
CCCCCCCCCCCCNc1nnc(-c2ccncn2)o1 [3o, N-Dodecyl-5-(pyrimidin-4-yl)-1,3,4-oxadiazol-2-amine] | 45.5 | 6.6 | 298.3 ± 2.19 |  |  |  |  |  | 
CCCCCCCCCCCCNc1nnc(-c2cccnc2)o1 [3m, N-Dodecyl-5-(pyridin-3-yl)-1,3,4-oxadiazol-2-amine] | 64.2 ± 0.93 | 5.8 | 369 ± 3.83 |  |  |  |  |  | 
CCCCCCCCCCCCNc1nnc(-c2ccncc2)o1 [3l, N-Dodecyl-5-(pyridin-4-yl)-1,3,4-oxadiazol-2-amine] | 50.2 ± 0.79 | 4.4 | 223 ± 1.54 |  |  |  |  |  | 3.9
CCCCCCCCCCCCNc1nnc(-c2ccnc(Br)c2)o1 [3q, 5-(2-Bromopyridin-4-yl)-N-dodecyl-1,3,4-oxadiazol-2-amine] | 73.4 ± 2.06 | 3.1 | 224.2 ± 1.29 |  |  |  |  |  | 
CCCCCCCCCCCCNc1nnc(-c2ccc(Br)cc2)o1 [3i, 5-(4-Bromophenyl)-N-dodecyl-1,3,4-oxadiazol-2-amine] | 40 ± 0.98 | 9.2 | 369 ± 5.82 |  |  |  |  |  | 
CCCCCCCCCCCCNc1nnc(-c2ccc(C)cc2)o1 [3b, N-Dodecyl-5-(p-tolyl)-1,3,4-oxadiazol-2-amine] | 34.6 ± 0.96 | 2.6 | 90 ± 2.35 |  |  |  |  |  | 
CCCCCCCCCCCCNc1nnc(-c2ccc(N(C)C)cc2)o1 [3f, 5-[4-(Dimethylamino)phenyl]-N-dodecyl-1,3,4-oxadiazol-2-amine] | 87.99 ± 0.81 | 3.6 | 316 ± 6.22 |  |  |  |  |  | 
CCCCCCCCCCCCNc1nnc(-c2cc([N+](=O)[O-])cc([N+](=O)[O-])c2)o1 [3k, 5-(3,5-Dinitrophenyl)-N-dodecyl-1,3,4-oxadiazol-2-amine] | 40.98 ± 0.11 | 9.4 | 384 ± 5.34 |  |  |  |  |  | 
CCCCCCCCCCCCNc1nnc(-c2ccc(Cl)cc2)o1 [3h, 5-(4-Chlorophenyl)-N-dodecyl-1,3,4-oxadiazol-2-amine] | 50.2 ± 1.88 | 8.8 | 444 ± 8.5 |  |  |  |  |  | 
CCCCCCCCCCCCNc1nnc(-c2ccc([N+](=O)[O-])cc2)o1 [3e, N-Dodecyl-5-(4-nitrophenyl)-1,3,4-oxadiazol-2-amine] | 70.46 ± 0.59 | 1.5 | 105.2 ± 0.94 |  |  |  |  |  | 
CCCCCCCCCCCCNc1nnc(-c2ccc(I)cc2)o1 [3j, N-Dodecyl-5-(4-iodophenyl)-1,3,4-oxadiazol-2-amine] | 37.8 ± 1.83 | 12.7 | 482 ± 6.15 |  |  |  |  |  | 
